Laboratory results reported in PubChem BioAssay (NCI).
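A five-concentration, 48-hour dose response in 96-well plates underlies each endpoint, interpolated linearly between surrounding concentrations. Here, GI50 denotes the concentration required for 50% inhibition of growth. TGI denotes the concentration required for complete inhibition of growth.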

Key:
Test in all cases: NCI-60 cell line screen, 48 h
[1] = test system: UO-31 renal
[2] = test system: MOLT-4 leukemia
[3] = test system: SF-295 CNS
[4] = test system: SF-268 CNS
[5] = test system: HCC-2998 colon
[6] = test system: SNB-19 CNS
[7] = test system: HOP-62 NSCLC
[8] = test system: OVCAR-3 ovarian
[9] = test system: LOX IMVI melanoma
[10] = test system: CAKI-1 renal
[11] = test system: COLO 205 colon
[12] = test system: HL-60(TB) leukemia
[13] = test system: KM12 colon
[14] = test system: NCI-H226 lung
[15] = test system: NCI-H460 lung
[16] = test system: OVCAR-4 ovarian
[17] = test system: SW-620 colon
[18] = test system: BT-549 breast
[19] = test system: 786-0 renal
[20] = test system: NCI/ADR-RES ovarian
[21] = test system: HT29 colon
[22] = test system: IGROV1 ovarian
[23] = test system: HOP-92 NSCLC
[24] = test system: HCT-15 colon
[25] = test system: TK-10 renal
[26] = test system: A498 renal
[27] = test system: T-47D breast
[28] = test system: SK-OV-3 ovarian
[29] = test system: SNB-75 CNS
[30] = test system: SN12C renal
[31] = test system: CCRF-CEM leukemia
[32] = test system: SK-MEL-28 melanoma
[33] = test system: MCF7 breast
[34] = test system: HCT-116 colon
[35] = test system: RPMI-8226 leukemia
[36] = test system: SK-MEL-2 melanoma
[37] = test system: MDA-MB-231 breast
[38] = test system: K-562 leukemia
[39] = test system: MALME-3M melanoma
[40] = test system: OVCAR-5 ovarian
[41] = test system: NCI-H522 lung
[42] = test system: MDA-MB-435
[43] = test system: NCI-H23 lung
[44] = test system: A549 NSCLC
[45] = test system: ACHN renal
[46] = test system: UACC-257 melanoma
[47] = test system: SK-MEL-5 melanoma
[48] = test system: HS 578T breast
[49] = test system: SF-539 CNS
[50] = test system: RXF 393 renal
[51] = test system: UACC-62 melanoma
[52] = test system: SR leukemia
[53] = test system: PC-3 prostate
[54] = test system: M14 melanoma
[55] = test system: EKVX NSCLC
[56] = test system: OVCAR-8 ovarian
[57] = test system: U251 CNS
[58] = test system: DU-145 prostate
[59] = test system: MDA-N

Cc1ccc(/C=C(\C#N)n2nnc3cc(F)c(F)cc32)cc1
GI50 [1]: 2.8 µM | TGI [1]: 14.2 µM | GI50 [2]: 2.7 µM | TGI [2]: 36.5 µM | GI50 [3]: 4.02 µM | TGI [3]: 34.4 µM | GI50 [4]: 3.63 µM | TGI [4]: 20.9 µM | GI50 [5]: 2.96 µM | TGI [5]: 11.6 µM | GI50 [6]: 4.58 µM | TGI [6]: 20.9 µM | GI50 [7]: 1.52 µM | TGI [7]: 3.64 µM | GI50 [8]: 1.47 µM | TGI [8]: 6.08 µM | GI50 [9]: 2.88 µM | TGI [9]: 11.4 µM | GI50 [10]: 1.77 µM | TGI [10]: 19.1 µM | GI50 [11]: 1.82 µM | TGI [11]: 3.76 µM | GI50 [12]: 3.16 µM | TGI [12]: > 100 µM | GI50 [13]: 2.65 µM | TGI [13]: 15.4 µM | GI50 [14]: 6.45 µM | TGI [14]: 63.2 µM | GI50 [15]: 3.52 µM | TGI [15]: 11.3 µM | GI50 [16]: 2.58 µM | TGI [16]: 15.4 µM | GI50 [17]: 0.891 µM | TGI [17]: 11.2 µM | GI50 [18]: 1.95 µM | TGI [18]: 6.81 µM | GI50 [19]: 2.5 µM | TGI [19]: 11.9 µM | GI50 [20]: 2.53 µM | TGI [20]: > 100 µM | GI50 [21]: 0.421 µM | TGI [21]: 1.53 µM | GI50 [22]: 3.43 µM | TGI [22]: 32.1 µM | GI50 [23]: 2.37 µM | TGI [23]: 8.32 µM | GI50 [24]: 0.651 µM | TGI [24]: 15.3 µM | GI50 [25]: 2.52 µM | TGI [25]: 11.3 µM | GI50 [26]: 2.51 µM | TGI [26]: 7.84 µM | GI50 [27]: 1.19 µM | TGI [27]: 5.39 µM | GI50 [28]: 4.49 µM | TGI [28]: 33.7 µM | GI50 [29]: 2.45 µM | TGI [29]: 84.5 µM | GI50 [30]: 2.72 µM | TGI [30]: 7.41 µM | GI50 [31]: 1.81 µM | TGI [31]: > 100 µM | GI50 [32]: 6.79 µM | TGI [32]: > 100 µM | GI50 [33]: 2.45 µM | TGI [33]: > 100 µM | GI50 [34]: 1.69 µM | TGI [34]: 7.79 µM | GI50 [35]: 2.85 µM | TGI [35]: 8.71 µM | GI50 [36]: 2.26 µM | TGI [36]: 7.97 µM | GI50 [37]: 3.33 µM | TGI [37]: 12.8 µM | GI50 [38]: 0.445 µM | TGI [38]: > 100 µM | GI50 [39]: 15.9 µM | TGI [39]: 56.7 µM | GI50 [40]: 3.39 µM | TGI [40]: > 100 µM | GI50 [41]: 0.291 µM | TGI [41]: 1.12 µM | GI50 [42]: 0.36 µM | TGI [42]: 17.2 µM | GI50 [43]: 5.21 µM | TGI [43]: 28 µM | GI50 [44]: 2.28 µM | TGI [44]: 7.3 µM | GI50 [45]: 4.2 µM | TGI [45]: 34.7 µM | GI50 [46]: 1.63 µM | TGI [46]: 3.54 µM | GI50 [47]: 3.65 µM | TGI [47]: 14.2 µM | GI50 [48]: 4.17 µM | TGI [48]: 44.9 µM | GI50 [49]: 2.59 µM | TGI [49]: 10.3 µM | GI50 [50]: 3.28 µM | TGI [50]: 13.5 µM | GI50 [51]: 3.71 µM | TGI [51]: 17.5 µM | GI50 [52]: 0.391 µM | TGI [52]: 13.9 µM | GI50 [53]: 5.16 µM | TGI [53]: 24.3 µM | GI50 [54]: 2.07 µM | TGI [54]: 14.9 µM | GI50 [55]: 3.86 µM | TGI [55]: 41.2 µM | GI50 [56]: 2.26 µM | TGI [56]: 6.93 µM | GI50 [57]: 1.48 µM | TGI [57]: 2.94 µM | GI50 [58]: 3.32 µM | TGI [58]: 15.6 µM

CCP(=O)(CC)C(Cl)(Cl)C(=O)NC
TGI [1]: > 100 µM | TGI [2]: > 100 µM | TGI [3]: > 100 µM | TGI [5]: > 100 µM | TGI [6]: > 100 µM | TGI [7]: > 100 µM | TGI [8]: > 100 µM | TGI [9]: > 100 µM | TGI [10]: > 100 µM | TGI [11]: > 100 µM | TGI [12]: > 100 µM | TGI [14]: > 100 µM | TGI [15]: > 100 µM | TGI [16]: > 100 µM | TGI [17]: > 100 µM | TGI [20]: > 100 µM | TGI [21]: > 100 µM | TGI [22]: > 100 µM | TGI [23]: > 100 µM | TGI [24]: > 100 µM | TGI [25]: > 100 µM | TGI [27]: > 100 µM | TGI [28]: > 100 µM | TGI [29]: > 100 µM | TGI [30]: > 100 µM | TGI [31]: > 100 µM | TGI [32]: > 100 µM | TGI [34]: > 100 µM | TGI [59]: > 100 µM | TGI [35]: > 100 µM | TGI [36]: > 100 µM | TGI [37]: > 100 µM | TGI [38]: > 100 µM | TGI [40]: > 100 µM | TGI [41]: > 100 µM | TGI [42]: > 100 µM | TGI [43]: > 100 µM | TGI [44]: > 100 µM | TGI [45]: > 100 µM | TGI [46]: > 100 µM | TGI [47]: > 100 µM | TGI [48]: > 100 µM | TGI [52]: > 100 µM | TGI [53]: > 100 µM | TGI [54]: > 100 µM | TGI [56]: > 100 µM | TGI [57]: > 100 µM | TGI [58]: > 100 µM
